Series [1] has as its system LoVo/Dx cells (doxorubicin-resistant human colon carcinoma, P-glycoprotein overexpression). The experiment in a line: Antiproliferative activity, 72 h treatment, SRB assay, LoVo/Dx. To be noted: 72 h. treatment; read-out: Antiproliferative activity (IC50 ± S.D., μM) LoVo/Dx. Type of series: cell-based. From the text: (§1) LoVo and LoVo/Dx (line obtained by prolonged exposure to doxorubicin and characterised by overerexpression of P-glycoprotein, which confers resistance to doxorubicin): maintained in HAM-F12 medium+10% FCS.
(In general: The SRB assay estimates cell density from bound dye.)

Series [2] deals with HepG2 cells (human hepatic carcinoma). The experiment in a line: Antiproliferative activity, 48 h treatment, ATPlite luminescence assay, HepG2. In kind it is cell-based. The procedure:
HepG2: maintained in EMEM medium+10% FCS.
(§2) 24 hours after seeding, an aliquot (10 μl) of the drug at the various concentrations is added (for each concentration there are 3 replicates). After 48 hours of treatment the antiproliferative effect is evaluated with a luminescence assay (Perkin Elmer Life Sciences ATPlite):
(§3) 50 μl of a lysis solution are added to each well followed by an equal volume of a solution containing luciferase and D-luciferin. The ATP present in all the metabolically active cells brings about the transformation reaction of D-luciferin, catalysed by luciferase, to produce a luminescent signal as described in the following scheme: ATP+D-luciferin+O2→Oxyluciferin+AMP+PPi+CO2+Light
(§4) The luminescence produced (expressed in counts per second, CPS) is measured by means of a microplate scintillation analyzer (Perkin Elmer Life Sciences Top Count).
(§5) Percentage inhibition of luminescence in the treated cells compared to the control is calculated; concentration-response curves are then analysed using Grafit v.5.0.

Series [3] relates to LoVo cells (human colon carcinoma). The experiment in a line: Antiproliferative activity, 72 h treatment, SRB assay, LoVo. Type of series: cell-based. To be noted: 72 h. treatment; read-out: Antiproliferative activity (IC50 ± S.D., μM) LoVo.
Source text: as §1

The subject of series [4] is A2780 cells (human ovarian carcinoma). In words: Antiproliferative activity, 48 h treatment, ATPlite luminescence assay, A2780. In kind it is cell-based. To be noted: 48 h. treatment; read-out: Antiproliferative activity (IC50 ± S.D., μM) A2780. The procedure: as §2, §3, §4, §5
On the technique in general: Cellular ATP, detected with luciferase, serves as a proxy for viable cell number.

The subject of series [5] is HT29 cells (human colon carcinoma). In words: Antiproliferative activity, 72 h treatment, SRB assay, HT29. To be noted: 72 h. treatment, read-out: Antiproliferative activity (IC50 ± S.D., μM) HT-29. In kind it is cell-based.
Series [6] has as its system HCT116 cells (human colon carcinoma). In words: Antiproliferative activity, 72 h treatment, SRB assay, HCT116. In kind it is cell-based. To be noted: 72 h. treatment; read-out: Antiproliferative activity (IC50 ± S.D., μM) HCT116. Here is the method:
HCT116 maintained in RPMI 1640 medium+10% FCS.
(§6) The cells (HT29 and HT29/Mit:. 40,000 cells/ml, LoVo, LoVo/Dx and HCT116: 50,000 cells/ml) are seeded in 100 μl of the respective culture media in 96-well plates. 24 hours after seeding, an aliquot (10 μl) of drug at the various concentrations is added. In the samples in which the effect of the combination of two compounds is to be tested the inhibitor is added immediately before the cytotoxic. For each dose or combination of doses/drugs the effect of the treatment is determined in 4-8 replicates.
(§7) After 72 hours of treatment the antiproliferative effect is evaluated using the sulforhodamine B (SRB) assay: the cells are fixed by adding 25 μl of 50% TCA to each well and left for 1 hour at 4° C. After washing them with water and allowing them to dry, 100 μl of 0.4% SRB in 1% acetic acid are added and left for 30 minutes at room temperature. After 4 washes in 1% acetic acid, they are left to dry, then the dye fixed by the proteins is dissolved under basic conditions with 100 μl 10 mM cold Tris and the solution is read using a spectrophotometer at 550 nm.
(§8) Percentage cell growth is calculated as the optical density of treated samples compared to the optical density of controls (untreated cells).
(§9) The Combination Index (C.I.) was determined according to Kern's method, 1988 (who continued from Drewinko B, 1976) (Kern D. H., Cancer Res. 48, 117-121, 1988; Drewinko B., Cancer Biochem. Biophys. 1, 187-195, 1976) by means of the following formula: […], where SFa and SFb are the fractions of cells surviving to treatment with compound a and b, respectively; SFab is the fraction surviving to the combination of compounds a and b.

Series [7] relates to SH-SY5Y cells (human neuroblastoma). In words: Antiproliferative activity, 48 h treatment, ATPlite luminescence assay, SH-SY5Y. To be noted: 48 h. treatment; read-out: Antiproliferative activity (IC50 ± S.D., μM) SHSY-5Y. Type of series: cell-based. Here is the method: (§10) SH-SY5Y and SK-N-BE(2): maintained in HAM-F12 medium+10% FCS.
as §2, §3, §4, §5

The test system of series [8] is SK-N-BE(2) cells (human neuroblastoma). In words: Antiproliferative activity, 48 h treatment, ATPlite luminescence assay, SK-N-BE(2). Type of series: cell-based. To be noted: 48 h. treatment; read-out: Antiproliferative activity (IC50 ± S.D., μM) SK-N-BE(2). Here is the method:
as §10, §2, §3, §4, §5

For series [9], the system named is HT29/Mit cells (mitoxantrone-resistant human colon carcinoma, BCRP overexpression). The experiment in a line: Antiproliferative activity, 72 h treatment, SRB assay, HT29/Mit. To be noted: Homo sapiens, HT-29, 72 h. The procedure:
HT29 and HT29/Mit (line obtained by prolonged exposure to mitoxantrone, and characterised by overerexpression of BCRP, which confers cross resistance to topotecan, irinotecan and to its metabolite SN38): maintained in McCoy 5A medium+10% FCS.
as §6, §7, §8, §9

Series [10] concerns H460 primary tumor. The experiment in a line: H460 human non-small cell lung carcinoma xenograft, antitumor activity on the primary tumor. To be noted: H460 s.c., p.o. for 8 weeks, topotecan 1 mg/kg, compound of example 2 30 mg/kg. In kind it is in vivo, athymic Swiss nude mice. The procedure: Female athymic Swiss nude mice (8-10 weeks old) (Charles River, Calco, Italy) were used for the experiments, as described above.
H460 cells were injected i.p. into nude mice, adapted to grow as ascitis and maintained in vivo by i.p. passages (5×10^6 cells/mouse in 0.5 ml PBS) (Pratesi G., Br. J. Cancer 63, 71-74, 1991). Briefly, cells were collected from the donor mice about 7 days after inoculum. After washing, cell number and viability were determined by trypan blue exclusion. Such procedure allowed to obtain a single cell suspension easily available for s.c or i.v. injection.
(§11) The effects of the compounds of the invention and/or topotecan on the growth of primary tumors and spontaneous lung metastasis were tested in mice inoculated s.c. in the right flank with H460 ascitic tumor cells (2×10^6/mouse). Each control or drug-treated group included 9-11 mice. The s.c. tumor growth was followed by biweekly measurements of tumor diameters with a Vernier caliper. Drug treatment was delivered orally, for 8 weeks, from day 1. Topotecan was delivered at the dose of 1 mg/kg and compounds of the invention were delivered at the dose of 30 mg/kg; in the combination group the compounds of the invention were delivered almost 1 hour after topotecan treatment. Control mice were solvent-treated orally in parallel with drug treatments.
(§12) Drug efficacy was assessed as mean percentage tumor weight inhibition in drug-treated versus control mice expressed as tumor weight inhibition % (TWI %)=100−(mean tumor weight treated/mean tumor weight control×100), evaluated during and after drug treatment. Drug tolerability was assessed in tumor-bearing mice as either lethal toxicity, i.e., any death in treated mice occurring before any control death, or percentage body weight loss (BWL %)=100−(body weight on day x/body weight on day 1×100), where x represents a day after or during the treatment period.

For series [11], the system named is HT29/Mit human colon carcinoma xenografts. The experiment in a line: HT29/Mit human colon carcinoma xenografts, antitumor activity. In kind it is in vivo, athymic Swiss nude mice. To be noted: HT29/Mit xenograft, p.o.; topotecan 15 mg/Kg every 4 days for 3 administrations; compound of example 2 30 mg/kg; alone or combined. The procedure: Female athymic Swiss nude mice (8-10 weeks old) (Charles River, Calco, Italy) were used for the experiments. The animals were maintained at constant temperature and humidity, and were allowed to eat and drink freely. The experimental protocol was approved by the Ethics Committee for Animal Experimentation of the Istituto Nazionale Tumori of Milan.
The antitumour effectiveness of the compounds of the invention under discussion was tested on athymic mouse models implanted with HT29 and/or HT29/Mit tumour cells: this latter variety is highly resistant to topotecan treatment. The tumour cells were implanted in vivo via subcutaneous injection of 10^7 cells taken from in vitro cultures. Randomized groups of five mice with bilateral subcutaneous tumours were used for the experiment.
Topotecan or other known antitumour agents (dissolved in distilled water or an appropriate solvent) and the compounds of the invention (dissolved in Cremophor EL:ethanol:saline solution in the proportions 5:5:90, or in an appropriate solvent) were administered orally from the third day, alone or in combination, in agreement with a treatment scheme selected in an appropriate manner depending on the type of compound to be studied.
The weight (or volume) of the tumour in treated mice compared to controls is represented graphically on the y-axis against time (x-axis).
Background: Xenograft models place foreign cells or tissue in a host animal.

Series [12] concerns H460 spontaneous lung metastasis. The experiment in a line: H460 xenograft, spontaneous lung metastasis (antimetastatic activity). In kind it is in vivo, athymic Swiss nude mice. To be noted: topotecan 1 mg/kg, compound of example 2 30 mg/kg p.o. The procedure: At day 63, tumor-bearing mice were sacrificed by cervical dislocation and their lungs were removed and weighed. Lung lobes were spliced between two glass slides and the metastatic nodules were macroscopically counted against a bright light (Corti C, J. Cancer Res. Clin. Oncol. 122, 154-60, 1996). […] Reading of metastasis was performed by two independent observers, unaware of the experimental group, with an interobserver reproducibility >95%. The metastatic nature of these areas was confirmed by histological analysis of digital images obtained by Image Analysis System software (Delta System, Rome, Italy).

Series [13] is described as follows: Drug tolerability in H460 tumor-bearing mice (lethal toxicity). To be noted: topotecan 1 mg/kg, compound of example 2 30 mg/kg p.o., 8 weeks. The procedure:
as §11, §12

The mark [14] stands for this setting: read-out: Antiproliferative activity (IC50 ± S.D., μM) HT-29/Mit.
Setting [15] is: Homo sapiens, HepG2, read-out: Antiproliferative activity (IC50 ± S.D., μM) HepG2.

Read-outs that look alike come from different tables or passages of the source. Marks after values point to notes of the source that are not given here.

Regarding `N.N.[Cl][Pt][Cl]` [Cisplatin, reference compound], the IC50 in [1] is 0.8 µM; in series [2] (read-out: Antiproliferative activity (IC50 ± S.D., μM) HepG2), above 25 µM; in series [3], 0.7 µM; in [4] it was 8.1 ± 2.1 µM; in series [5], 6.8 µM; in series [6], 5.4 µM. The IC50 in series [7] was found to be 7.3 ± 3.3 µM; in series [8], 10.1 ± 3.5 µM.

On to `CCOc1cc(C(=O)NC2CCNCC2)ccc1-c1cc2cc(Cl)c(Cl)cc2[nH]1` [Example 4], for which the IC50 is 3.6 µM in series [9] (setting [14]) and 4.7 µM in [5] (Homo sapiens, HT-29).

With `CCOc1cc(C(=O)NC2CCN(C)CC2)ccc1-c1cc2cc(Cl)c(Cl)cc2[nH]1` [Example 5], the IC50 in [9] (setting [14]) stood at 2.3 µM; in [5] (Homo sapiens, HT-29), 3.8 µM.

As to `COc1cc(C(=O)N(C)C2CC(C)(C)NC(C)(C)C2)ccc1-c1cc2cc(Cl)c(Cl)cc2[nH]1` [Example 6], the IC50 worked out at 0.92 ± 0.01 µM in series [2] (setting [15]); 3.3 µM in series [9] (setting [14]); 4.7 µM in series [5] (Homo sapiens, HT-29).

For `CC[C@@]1(O)C(=O)OCc2c1cc1n(c2=O)Cc2cc3c(CN(C)C)c(O)ccc3nc2-1` [Topotecan, reference compound], in [10], the “LCK (Log10 Cell Kill)” value was 0.5. Moreover, the “Max TWI (day 56) (Maximal Tumor weight inhibition achieved)” value in series [10] is reported as 57* %; in [10] (listed as topotecan) it was 57%. Also, the “Inhibition of tumour growth” value in series [11] is reported as 30-40%. For the same compound, the IC50 in [9] (read-out: IC50 for topotecan alone (FIG. 1 co-treatment experiment)) was above 20 µM; in [5] (Homo sapiens, HT-29) it was 0.07 ± 0.01 µM. Besides, the “Lung No. Metastasis (range)” value in [12] (day 63) is recorded as 11 (4-23); in [12] (day 63, listed as topotecan) it was “reduced”. The “Lung Weight (mg) (mean ± S.D.)” value in series [12] (day 63) is listed as 169 ± 16 mg. The “Lung metastasis Inhibition %” value in [12] (inhibition of number of metastasis vs controls) amounted to 58%. For the same compound, in series [13], the “Tox/Tot (any death in treated mice occurring before any control mice)” value was 0/10.

Turning to `CCOc1cc(C(=O)NC2CC(C)(C)NC(C)(C)C2)ccc1-c1nc2cc(Cl)c(Cl)cc2[nH]1` [Example 3], the IC50 in series [2] (setting [15]) was determined as 0.71 ± 0.01 µM; in series [9] (setting [14]), 0.27 µM; in [5] (Homo sapiens, HT-29) it was 0.56 ± 0.26 µM.

As to `CO/C(=C\C=C\c1cc2cc(Cl)c(Cl)cc2[nH]1)C(=O)NC1CC(C)(C)N(C)C(C)(C)C1` [Example 1], the IC50 in series [2] (setting [15]) came out at 1.1 ± 0.1 µM; in [9] (setting [14]) it was 1 µM; in series [5] (Homo sapiens, HT-29), 3.3 ± 0.4 µM.
